Results reported in patent US10253039B2, “Inhibitors of bacterial DNA gyrase with efficacy against gram-negative bacteria” (priority 2014, dated 2019).
≈ marks a conversion by molar mass, not a printed value. Where two headings read alike, the source gives them in different places.

Columns and labels:
E. coli BW25113 ΔtolC = assay: MIC, microdilution in 96-well plates; settings: E. coli BW25113 ΔtolC (parent strain); Table 5
[1] = system: ciprofloxacin resistant strains of E. coli; assay: MIC against ciprofloxacin resistant strains compared to parent strain; settings: ratio to MIC of parent strain E. coli BW25113 ΔtolC
Description: (§2) A microdilution method in 96-well plates was used and the MIC protocol established by the Clinical Laboratory Standards Institute was followed. From a growing subculture, a 1:10000 inoculum of each strain in Luria-Bertani media was prepared and aliquoted 100 μL in 4 columns of wells, except for the top row wells, which contained 200 μL of inoculum. […] The liquid in each of wells was mixed with a multi-channel pipet and 100 μL was transferred to the next well and mixed. The 2-fold dilution was continued down the 96-well plate until 100 μL was left, which was discarded. The plates were incubated at 37° C. with shaking for 16-18 hours. The MIC was determined as the lowest concentration that inhibited growth and had no turbidity by visual inspection.

[2] = system: E. coli BW25113 ΔtolC cipR isolate GyrA Asp87Tyr; assay: MIC against ciprofloxacin-resistant mutant; settings: cipR isolate GyrA Asp87Tyr
Description: as §2

[3] = system: E. coli BW25113 ΔtolC cipR isolate GyrB Ser464Phe; assay: MIC against ciprofloxacin-resistant mutant; settings: cipR isolate GyrB Ser464Phe
Description: as §2

[4] = system: E. coli BW25113 ΔtolC cipR isolate GyrA Ser83Leu; assay: MIC against ciprofloxacin-resistant mutant; settings: cipR isolate GyrA Ser83Leu
Description: as §2

[5] = system: E. coli BW25113 ΔtolC cipR isolate GyrA Asp87Gly; assay: MIC against ciprofloxacin-resistant mutant; settings: cipR isolate GyrA Asp87Gly
Description: as §2

E. coli JW5503 (deltolC) = assay: MIC, 20-strain panel; type: cell-based; settings: Escherichia coli
Outline: (§1)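 Growth inhibition was scored after overnight culture (16-18 hours, 37° C., shaking) by looking for turbidity; the first clear well in a triplicate 2-fold compound series defined the MIC. Strains were inoculated at 1:10000 into LB.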

Streptococcus agalactiae = assay: MIC, 20-strain panel; type: cell-based; settings: read-out: MIC
Outline: as §1

[6] = system: Salmonella enterica subsp. enterica typhimurium; assay: MIC, 20-strain panel; type: cell-based
Outline: as §1

E. coli MG1655 = assay: MIC, 20-strain panel; type: cell-based; settings: Escherichia coli, read-out: MIC
Outline: as §1

Enterococcus faecium = assay: MIC, 20-strain panel; type: cell-based
Outline: as §1

[7] = system: Staphylococcus aureus subsp. aureus; assay: MIC, 20-strain panel; type: cell-based; settings: read-out: MIC
Outline: as §1

[8] = system: Staphylococcus saprophyticus subsp. saprophyticus; assay: MIC, 20-strain panel; type: cell-based; settings: read-out: MIC
Outline: as §1

Enterococcus faecalis = assay: MIC, 20-strain panel; type: cell-based; settings: Table 7, separate set of experiments
Outline: as §1

[9] = system: Morganella morganii subsp. morganii; assay: MIC, 20-strain panel; type: cell-based; settings: Morganella morganii subsp. morganii; Table 7, separate set of experiments; read-out: MIC
Outline: as §1

Streptococcus pyogenes = assay: MIC, 20-strain panel; type: cell-based; settings: read-out: MIC
Outline: as §1

Bacillus subtilis 168 = assay: MIC, 20-strain panel; type: cell-based
Outline: as §1

Bacillus cereus = assay: MIC, 20-strain panel; type: cell-based
Outline: as §1

[10] = system: Staphylococcus epidermidis; assay: MIC, 20-strain panel; type: cell-based; settings: read-out: MIC
Outline: as §1

Shigella flexneri = assay: MIC, 20-strain panel; type: cell-based
Outline: as §1

[11] = system: Klebsiella pneumoniae subsp. pneumoniae; assay: MIC, 20-strain panel; type: cell-based; settings: read-out: MIC
Outline: as §1

E. coli BW25113 = assay: MIC, microdilution in 96-well plates; type: cell-based; settings: Escherichia coli, read-out: MIC
Outline: as §1

Pseudomonas aeruginosa = assay: MIC, microdilution in 96-well plates; type: cell-based; settings: Table 7, separate set of experiments, read-out: MIC
Outline: as §1

Edwardsiella tarda = assay: MIC, microdilution in 96-well plates; type: cell-based; settings: read-out: MIC
Outline: as §1

Enterobacter aerogenes = assay: MIC, microdilution in 96-well plates; type: cell-based; settings: Klebsiella aerogenes, Enterobacter aerogenes; Table 7, separate set of experiments; read-out: MIC
Outline: as §1

Acinetobacter baumannii = assay: MIC, microdilution in 96-well plates; type: cell-based; settings: Table 7, separate set of experiments, read-out: MIC
Outline: as §1

[12] = E. coli JW5503 (deltolC), Table 7, separate set of experiments
[13] = Table 7, separate set of experiments
[14] = F: Salmonella enterica subsp. enterica Typhimurium
[15] = Salmonella enterica subsp. enterica typhimurium, Table 7, separate set of experiments
[16] = MG1655, E. coli MG1655, Table 7, separate set of experiments
[17] = Table 7, separate set of experiments, read-out: MIC
[18] = H: Staphylococcus aureus subsp. aureus
[19] = Staphylococcus aureus subsp. aureus, Table 7, separate set of experiments
[20] = I: Staphylococcus saprophyticus subsp. saprophyticus
[21] = Staphylococcus saprophyticus subsp. saprophyticus, Table 7, separate set of experiments
[22] = E: Klebsiella pneumoniae subsp. pneumoniae
[23] = Klebsiella pneumoniae subsp. pneumoniae, Table 7, separate set of experiments
[24] = BW25113, E. coli BW25113, Table 7, separate set of experiments
[25] = 20-strain screen of Table 6, read-out: MIC

Compound	MIC (E. coli JW5503 (deltolC); C: E. coli JW5503 (deltolC)) [µg/mL]	MIC (E. coli JW5503 (deltolC); [12]) [µg/mL]	MIC (Streptococcus agalactiae; K: Streptococcus agalactiae) [µg/mL]	MIC (Streptococcus agalactiae; [13]) [µg/mL]	MIC [6, 14] [µg/mL]	MIC [6, 15] [µg/mL]	MIC (E. coli MG1655; MG1655, A: E. coli MG1655) [µg/mL]	MIC (E. coli MG1655; [16]) [µg/mL]	MIC [7, 18] [µg/mL]	MIC [7, 19] [µg/mL]	MIC [8, 20] [µg/mL]	MIC [8, 21] [µg/mL]	MIC (Enterococcus faecalis) [µg/mL]	MIC [9] [µg/mL]	MIC (Streptococcus pyogenes; L: Streptococcus pyogenes) [µg/mL]	MIC (Streptococcus pyogenes; [13]) [µg/mL]	MIC ([10]; J: Staphylococcus epidermidis) [µg/mL]	MIC [10, 13] [µg/mL]	MIC (Shigella flexneri; G: Shigella flexneri) [µg/mL]	MIC (Shigella flexneri; [13]) [µg/mL]	also measured
Cc1ccc(F)cc1S(=O)(=O)NC1CCN(Cc2ccc(-c3ccccc3)cc2)C1 (stereo not shown) [Gyramide C]	–	–	–	–	–	–	–	–	–	–	–	–	–	–	–	–	–	–	–	–	MIC (E. coli BW25113 ΔtolC): 2.5 µM (≈ 1.06 µg/mL); MIC against ciprofloxacin resistant strains compared to the parent strain [1]: 1-4 times; MIC [2]: 5 µM (≈ 2.12 µg/mL); MIC [3]: 10 µM (≈ 4.25 µg/mL); MIC [4]: 2.5 µM (≈ 1.06 µg/mL); MIC [5]: 5 µM (≈ 2.12 µg/mL)
Cc1ccc(C#N)cc1S(=O)(=O)N[C@@H]1CCN(Cc2ccc(-c3ccccc3)cc2)C1 [Compound 143]	< 0.0625	< 0.0078	> 8	> 16	1 (≈ 2.32 µM)	2 (≈ 4.63 µM)	8 (≈ 18.5 µM)	16 (≈ 37.1 µM)	> 8	> 16	> 8	> 16	> 16	> 16	> 8	> 16	~8 (≈ 18.5 µM)	> 16	4 (≈ 9.27 µM)	4 (≈ 9.27 µM)	MIC (Enterococcus faecium; [17]): > 16 µg/mL; MIC (Bacillus subtilis 168; [17]): > 16 µg/mL; MIC (Bacillus cereus; [17]): > 16 µg/mL; MIC [11, 22]: > 8 µg/mL; MIC [11, 23]: > 16 µg/mL; MIC (E. coli BW25113; BW25113, B: E. coli BW25113): ~8 µg/mL (≈ 18.5 µM); MIC (E. coli BW25113; [24]): 8 µg/mL (≈ 18.5 µM); MIC (Pseudomonas aeruginosa): > 16 µg/mL; MIC (Edwardsiella tarda; D: Edwardsiella tarda): ~8 µg/mL (≈ 18.5 µM); MIC (Edwardsiella tarda; [13]): 8 µg/mL (≈ 18.5 µM); MIC (Enterobacter aerogenes): > 16 µg/mL; MIC (Acinetobacter baumannii): > 16 µg/mL
Cc1ccc(C(F)(F)F)cc1S(=O)(=O)N[C@@H]1CCN(Cc2ccc(OC3CC3)cc2)C1 [Compound 91]	< 0.0625	< 0.0078	8 (≈ 17.6 µM)	8 (≈ 17.6 µM)	4 (≈ 8.8 µM)	4 (≈ 8.8 µM)	4 (≈ 8.8 µM)	8 (≈ 17.6 µM)	4 (≈ 8.8 µM)	8 (≈ 17.6 µM)	8 (≈ 17.6 µM)	8 (≈ 17.6 µM)	16 (≈ 35.2 µM)	> 16	4 (≈ 8.8 µM)	4 (≈ 8.8 µM)	2 (≈ 4.4 µM)	8 (≈ 17.6 µM)	8 (≈ 17.6 µM)	4 (≈ 8.8 µM)	MIC (Enterococcus faecium; [25]): 8 µg/mL (≈ 17.6 µM); MIC (Enterococcus faecium; [13]): 8 µg/mL (≈ 17.6 µM); MIC (Bacillus subtilis 168; [25]): 8 µg/mL (≈ 17.6 µM); MIC (Bacillus subtilis 168; [13]): 8 µg/mL (≈ 17.6 µM); MIC (Bacillus cereus; [25]): 8 µg/mL (≈ 17.6 µM); MIC (Bacillus cereus; [13]): 8 µg/mL (≈ 17.6 µM); MIC [11, 22]: > 8 µg/mL; MIC [11, 23]: > 16 µg/mL; MIC (E. coli BW25113; BW25113, B: E. coli BW25113): 8 µg/mL (≈ 17.6 µM); MIC (E. coli BW25113; [24]): 8 µg/mL (≈ 17.6 µM); MIC (Pseudomonas aeruginosa): > 16 µg/mL; MIC (Edwardsiella tarda; D: Edwardsiella tarda): 8 µg/mL (≈ 17.6 µM); MIC (Edwardsiella tarda; [13]): 8 µg/mL (≈ 17.6 µM); MIC (Enterobacter aerogenes): > 16 µg/mL; MIC (Acinetobacter baumannii): > 16 µg/mL
